This is an account of results in US6287840A (Axys Pharmaceuticals, Inc., priority 1999, dated 2001).

In assay [1] the target is T1, Cathepsin L from rat liver (Rattus norvegicus, UniProt P07154).
T1 construct: Cathepsin L from rat liver; from tissue; host or cells: rat liver
Briefly: Inhibition of cathepsin L, Z-Phe-Arg-AMC fluorescence progress curves. In kind it is biochemical. The note with it: values without asterisk; 25° C., pH 6.2. Here is the method: (§1) Stock solutions of the various inhibitors (10 mM) were made in DMF; dilutions were made in the same solvent. Cathepsin L from rat liver, (see Mason et al., Biochem. J. 226:233-241 (1985)) was approximately 1 nM in the assay. The assay buffer contained 50 mM phosphate at pH 6:2, 2.5 mM dithiothreitol (DTT), and 2.5 mM ethylenediaminetetraacetic acid (EDTA). The substrate for cathepsin L was 5 μM Z-Phe-Arg-AMC (carbobenzyloxyphenylalanylarginylaminomethylcoumarin). The assays were initiated at 25° C. by addition of enzyme to 2 mL of assay buffer containing the substrate and the various inhibitors (30-0.001 μM). The increase in fluorescence at 460 nm with excitation at 380 nm was followed with time. Inactivation of cathepsin L was indicated by a downward curve in the increase in fluorescence with time. In the absence of inhibitors, the enzymatic production of free AMC was linear throughout the time course of inactivation examined. Data points were collected over at least 3 half-times of inactivation. The inhibition progress curves were analyzed using non-linear curve fitting software to compute the kobs values. Approximate second-order inactivation constants (kobs /[I]) were calculated for all compounds. For selected inhibitors, plots of 1/[I] vs. 1/kobs yielded the true constants kirr, KI, and kirr/KI and were corrected for the presence of substrate by dividing KI (app.) by (1+[S]/Km).

The next assay concerns calpain. Nature of the assay: Inhibition (inactivation) of calpain, Suc-Leu-Tyr-AMC. In kind it is biochemical. The note with it: pH 7.5, 5 mM CaCl2, 25° C.; for kobs /[I]*: values marked * (or %); for k/KI (kirr/KI): values without asterisk. Here is the method:
The inhibitors were tested against calpain at 1 or 2% as for the other enzymes. The reaction conditions were 50 mM Tris, pH 7.5, 5 mM CaCl2, 2.5 mM DTT, assayed at 25° C. The substrate was 100 μM Suc-Leu-Tyr-AMC.

For the next assay, the target named is cruzain, from T. cruzi (Trypanosoma cruzi, UniProt P25779). Briefly: Inhibition of cruzain, as for cathepsin L. In kind it is biochemical. The note with it: for k/KI (kirr/KI): values without asterisk. The method, then: as §1
Sequence of cruzain, from T. cruzi (P25779 123-337 limits assumed): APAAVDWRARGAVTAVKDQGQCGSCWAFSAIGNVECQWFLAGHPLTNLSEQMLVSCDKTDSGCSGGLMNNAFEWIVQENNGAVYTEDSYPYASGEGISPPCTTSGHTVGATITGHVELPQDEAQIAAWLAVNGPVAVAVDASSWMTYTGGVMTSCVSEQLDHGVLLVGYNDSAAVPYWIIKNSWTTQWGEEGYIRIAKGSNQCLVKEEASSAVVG
Inhibition of cruzain, from T. cruzi, (see Eakin et at., J. Biol. Chem. 268(9): 6115-6118 (1993)) proceeded exactly as for cathepsin L, outlined above, using an enzyme concentration of 1 nM.

Assay [2] deals with T2, Cathepsin B from human placenta (Homo sapiens, UniProt P07858).
T2 construct: Cathepsin B from human placenta, obtained from Sigma; purchased Sigma; host or cells: human placenta (tissue)
Nature of the assay: Inhibition of cathepsin B, Z-Arg-Arg-AMC fluorescence progress curves. In kind it is biochemical. The note with it: for k/KI (kirr/KI): values without asterisk. Here is the method:
Stock solutions of the various inhibitors (10 mM) were made in DMF; dilutions were made in the same solvent. Cathepsin B from human placenta, obtained from Sigma, was approximately 10 nM in the assay. The assay buffer contained 50 mM phosphate at pH 6.2, 2.5 mM dithiothreitol (DTT), and 2.5 mM ethylenediaminetetraacetic acid (EDTA). The substrate for cathepsin B was 50 μM Z-Arg-Arg-AMC (carbobenzyloxyarginylarginylaminomethylcoumarin). The assays were initiated at 25° C. by addition of enzyme to 2 mL of assay buffer containing the substrate and the various inhibitors (30-0.001 (μM). The increase in fluorescence at 460 nm with excitation at 380 nm was followed with time, and the assay was linear throughout the range observed. Inactivation of cathepsin B was indicated by a downward curve in the increase in fluorescence with time. In the absence of inhibitors, the enzymatic production of free AMC was linear throughout the time course of inactivation examined. Data points were collected over at least 3 half-times of inactivation, and in duplicate. The inhibition progress curves were analyzed using non-linear curve fitting software to compute the kobs values. Approximate second-order inactivation constants (kobs /[I]) were calculated for all compounds. For selected inhibitors, plots of 1/[I] vs. 1/kobs yielded the true constants kirr, KI, and kirr /KI, and were corrected for the presence of substrate by dividing KI (app.) by {1+[S]/Km }.

Assay [3] has as its system Trypanosoma brucei extracellular bloodstream forms. Nature of the assay: In vitro antiprotozoal activity, Trypanosoma brucei. In kind it is cell-based. The note with it: Trypanosoma brucei, read-out: percentage inhibition, T. brucei. Here is the method:
(§2) In this table, the in vitro antiprotozoal activities of the indicated compounds were measured as percentage inhibition of Leishmania donovani amastigote infecteda mouse peritoneal macrophages, Trypanosoma cruzi amastigote infected macrophages, and Trypanosoma brucei extracellular bloodstream forms.

Assay [4] concerns Leishmania donovani amastigote infected mouse peritoneal macrophages. Nature of the assay: In vitro antiprotozoal activity, Leishmania donovani. In kind it is cell-based. The note with it: Leishmania donovani, Peritoneal macrophage, read-out: percentage inhibition, L. donovani. Here is the method: as §2
The subject of assay [5] is Trypanosoma cruzi amastigote infected macrophages. Briefly: In vitro antiprotozoal activity, Trypanosoma cruzi. In kind it is cell-based. Conditions: Trypanosoma cruzi, Macrophage, read-out: percentage inhibition, T. cruzi. The method, then:
as §2

The target of another assay is T3, Cloned cathepsin S (Homo sapiens, UniProt P25774).
T3 construct: made in house
T3 sequence (P25774 115-331): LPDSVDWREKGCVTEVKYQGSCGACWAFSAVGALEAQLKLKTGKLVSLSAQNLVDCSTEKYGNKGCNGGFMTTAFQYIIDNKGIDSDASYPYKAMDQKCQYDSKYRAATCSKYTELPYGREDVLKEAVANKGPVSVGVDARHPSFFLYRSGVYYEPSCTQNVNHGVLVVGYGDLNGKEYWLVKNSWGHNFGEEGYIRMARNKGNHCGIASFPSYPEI
Briefly: Inhibition of cathepsin S, Z-Val-Val-Arg-AMC fluorescence progress curves. In kind it is biochemical. The note with it: values marked *, 25° C., pH 6.5. Here is the method:
Stock solutions of the various inhibitors (10 mM) were made in DMF; dilutions were made in the same solvent. Cloned cathepsin S, (see Bromme et al., J. Biol. Chem. 268(&): 4832-4838 (1993)) was less than 1 nM in the assay. The assay buffer contained 100 mM phosphate at pH 6.5, 0.01% Triton, 2.5 mM dithiothreitol (DTT), and 2.5 mM ethylenediaminetetraacetic acid (EDTA). The substrate for cathepsin S was 10 μM Z-Val-Val-Arg-AMC (carbobenzyloxyvalinylvalinylarginylaminomethylcoumarin). The assays were initiated at 25° C. by addition of enzyme to 2 mL of assay buffer containing the substrate and the various inhibitors (30-0.001 μM). The increase in fluorescence at 460 nm with excitation at 380 nm was followed with time. Inactivation of cathepsin S was indicated by a downward curve in the increase in fluorescence with time. In the absence of inhibitors, the enzymatic production of free AMC was linear throughout the time course of inactivation examined. Data points were collected over at least 3 half-times of inactivation. The inhibition progress curves were analyzed using non-linear curve fitting software to compute the kobs values. Approximate second-order inactivation constants (kobs /[I]) were calculated for all compounds. For selected inhibitors, plots of 1/[I] vs. 1/kobs yielded the true constants kirr, KI, and kirr /KI, and were corrected for the presence of substrate by dividing KI (app.) by {1+[S]/Km}.

T1 sequence (P07154 114-288 limits assumed): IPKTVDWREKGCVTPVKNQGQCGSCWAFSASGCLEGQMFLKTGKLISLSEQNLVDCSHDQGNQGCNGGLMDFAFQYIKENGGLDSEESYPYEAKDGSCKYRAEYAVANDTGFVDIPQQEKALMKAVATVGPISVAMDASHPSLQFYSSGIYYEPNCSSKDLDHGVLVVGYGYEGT
T1 sequence (P07154 291-334 limits assumed): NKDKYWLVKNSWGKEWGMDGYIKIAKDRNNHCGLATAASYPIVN

As for `CC(=O)N[C@@H](CC(C)C)C(=O)N[C@@H](CC(C)C)C(=O)N[C@H](/C=C/S(=O)(=O)c1ccccc1)CCS(C)(=O)=O` [Ac-Leu-Leu-Met(O2)VSPh, (S)-(E)-3-(acetylleucylleucyl)amino-5-methylsulfonyl-1-phenylsulfonyl-1-pentene], the “k/KI (kirr/KI)” value in assay [1] is listed as 1,500,000 M^-1 sec^-1; at cruzain, from T. cruzi, 104,000 M^-1 sec^-1. Moreover, in the assay with calpain, the “kobs /[I]*” value is reported as 8,400 M^-1 sec^-1.

On to `CSCC[C@@H](/C=C/S(=O)(=O)c1ccccc1)NC(=O)[C@H](CC(C)C)NC(=O)[C@H](CC(C)C)NC(C)=O` [Ac-Leu-Leu-MetVSPh, (S)-(E)-3-(acetylleucylleucyl)amino-1-phenylsulfonyl-6-thia-1-heptene], for which the “k/KI (kirr/KI)” value in assay [1] was 880,000 M^-1 sec^-1; in assay [2] (25° C., pH 6.2), 0 M⁻¹ s⁻¹; on cruzain, from T. cruzi it was 110,000 M^-1 sec^-1. Besides, the “kobs /[I]*” value with calpain is listed as 5,600 M^-1 sec^-1.

Take `CCCC[C@@H](/C=C/S(=O)(=O)c1ccccc1)NC(=O)[C@H](CC(C)C)NC(=O)[C@H](CC(C)C)NC(C)=O` [Ac-Leu-Leu-NleVSPh, (S)-(E)-3-(acetylleucylleucyl)amino-1-phenylsulfonyl-1-heptene]: the “k/KI (kirr/KI)” value was 930,000 M^-1 sec^-1 in assay [1]; 0 M⁻¹ s⁻¹ in assay [2] (25° C., pH 6.2); 133,000 M^-1 sec^-1 on cruzain, from T. cruzi. The “kobs /[I]*” value in the assay on calpain is recorded as 6,900 M^-1 sec^-1.

`CC(=O)N[C@@H](Cc1ccc(O)cc1)C(=O)N[C@H](C(=O)N[C@@H](C)C(=O)NC(/C=C/S(=O)(=O)c1ccccc1)CC(=O)O)C(C)C` (stereo partly drawn) [Ac-Tyr-Val-Ala-AspVSPh, (e)-3-acetyltyrosylvalylalanylamino-4-hydroxycarbonyl-1-phenylsulfonyl-1-butene]: the “k/KI (kirr/KI)” value in assay [1] is 0 M⁻¹ s⁻¹; in the assay with calpain, 0 M⁻¹ s⁻¹; at cruzain, from T. cruzi it was 0 M⁻¹ s⁻¹.

As for `C[C@H](NC(=O)OC(C)(C)C)C(=O)N[C@H](/C=C/S(C)(=O)=O)Cc1ccccc1` [Boc-Ala-PheVSMe, (S)-(E)-3-(tert-2butoxycarbonylalanyl)amino-1-methylsulfonyl-4-phenyl-1-butene], the “kobs /[I]*” value in the assay with calpain was found to be 60 M⁻¹ s⁻¹.

Usually inhibition stands for the share of the control response that was lost under treatment. Turning to `Cl.NCC(=O)N[C@H](/C=C/S(=O)(=O)c1ccccc1)Cc1ccccc1` [HCl.Gly-Phe-VSPh, (S)-(E)-3-glycylamino-4-phenyl-1-phenylsulfonyl-1-butene hydrochloride], the inhibition at 3 µM in assay [3] (3 uM) and in assay [5] (3 uM) was 0% throughout. Further, the inhibition at 10 µM in assay [3] (10 uM), in assay [4] (10 uM) and in assay [5] (10 uM) was 0% throughout. The inhibition at 30 µM in assay [3] (30 uM) was 0%; in assay [4] (30 uM), 0%; in assay [5] (30 uM), 0.1%. For the same molecule, the values for the inhibition at 90 µM in assay [3] (90 uM), in assay [4] (90 uM) and in assay [5] (90 uM) were 0%, 4.02% and 0%, respectively. For the same molecule, in the assay on calpain, the “kobs /[I]*” value was below 50 M⁻¹ s⁻¹.

By Ki is commonly meant a measure of affinity in units of concentration, obtained from inhibition or displacement. `Br.Br.N=C(N)NCCC[C@@H](/C=C/S(=O)(=O)c1ccccc1)NC(=O)[C@H](CCCNC(=N)N)NC(=O)N1CCOCC1` [Mu-Arg-ARgVSPh.2HBr, (S)-(E)-3-(4-morpholinecarbonylarginyl)amino-6-guanidino-1-phenylsulfonyl-1-hexene dihydrobromide] yielded a kirr in assay [2] of 0.040 s⁻¹. The molecule also returned a Ki in assay [2] (corrected for substrate) of 150 µM. The “k/KI (kirr/KI)” value in assay [2] (25° C., pH 6.2) was determined as 26 M⁻¹ s⁻¹. Also, the “kobs /[I]*” value in the assay with calpain is below 50 M⁻¹ s⁻¹. At cruzain, from T. cruzi (values marked *), the “kobs /[I]* (approximate second-order inactivation constant)” value is recorded as 2,100 M^-1 sec^-1.

For the molecule `Cl.N[C@H](/C=C/S(=O)(=O)c1ccccc1)Cc1ccccc1` [Phe-VSPh, (S)-(E)-3-amino-4-phenyl-1-phenylsulfonyl-1-butene hydrochloride], the “kobs /[I]*” value in the assay with calpain is below 50 M⁻¹ s⁻¹.

`CC(C)C[C@H](NC(=O)OCc1ccccc1)C(=O)N[C@@H](CC(C)C)C(=O)N[C@H](/C=C/S(=O)(=O)c1ccccc1)Cc1ccc(O)cc1` [Z-Leu-Leu-TyrVSPh, (S)-(E)-3-(benzyloxycarbonylleucylleucyl)amino-4-(4-hydroxyphenyl)-1-phenylsulfonyl-1-butene]: the kinact/KI in assay [2] (values marked *, 25° C., pH 6.2, read-out: kobs /[I]* (approximate second-order inactivation constant)) came to 730 M⁻¹ s⁻¹; on Cloned cathepsin S (read-out: kobs /[I]* (approximate second-order inactivation constant)) it was 280000 M⁻¹ s⁻¹; at cruzain, from T. cruzi (pH 6.2, values marked *, read-out: kobs /[I]* (approximate second-order inactivation constant)), 45000 M⁻¹ s⁻¹. In addition, the “kobs /[I]*” value in the assay with calpain was 36,400 M^-1 sec^-1. The “k/KI (kirr/KI)” value with calpain is 24,300 M^-1 sec^-1.

With “(S)-(E)-3-(4-morpholinecarbonylleucylleucyl)amino-4-(4-hydroxyphenyl)-1-phenylsulfonyl-1-butene [Mu-Leu-Leu-TyrVSPh]”, at Cloned cathepsin S, the “kobs /[I]* (approximate second-order inactivation constant)” value is reported as 25,100 M^-1 sec^-1. Also, the “kobs /[I]*” value with calpain is given as 10,800 M^-1 sec^-1; in the assay on calpain (listed as Mu-Leu-Leu-Tyr-VSPh) it was 7,600 M^-1 sec^-1.

With “(S)-(E)-3-(4-morpholinecarbonylvalyl)amino-4-phenyl-1-phenylsulfonyl-1-butene [Mu-Val-PheVSPh]”, the “kobs /[I]*” value with calpain was found to be 110 M⁻¹ s⁻¹.
